Experimental data: patent US11911386B2, “Methods of treating B-cell proliferative disorder” (BeiGene Switzerland GmbH, priority 2022, dated 2024)
Several values for one entry are separate records, joined by “and”; a condition that tells them apart may be missing. Equal entries are not always repeated. Where two headings read alike, the source gives them in different places. Marks after values point to notes of the source that are not given here.

What was measured:
[1] = multiple doses of a moderate CYP3A inhibitor; cited from earlier work
[2] = Phase 2 (NCT04116437): recurrence and change in severity of ibrutinib/acalabrutinib intolerance events on zanubrutinib; format: in vivo, human
Text: The primary endpoints were the recurrence and the change in severity of ibrutinib and acalabrutinib intolerance events compared with corresponding treatment-emergent adverse events within each patient. In this document, the term “adverse event” refers to a “treatment-emergent adverse event” unless otherwise stated. Hereafter, the full “treatment-emergent adverse event” was not used.
Intolerance was defined as an unacceptable toxicity such that treatment should be discontinued per investigator opinion despite optimal supportive care.
If while on zanubrutinib a patient experienced the same adverse event that led to their intolerance to ibrutinib, the patient was said to experience a recurrence of an ibrutinib intolerant event. […] Otherwise, the severity was said to be the same. For acalabrutinib intolerant events, recurrence and change in severity were defined similarly.
Primary endpoint was the recurrence and change in severity of intolerance events per protocol.
The study design comprised two cohorts. […] Patients were not allowed to switch schedule during the study.

[3] = system: relapsed/refractory CLL/SLL; details: for Duration of response events: death / Duration of response events: progressive disease / Duration of response: events: responders
[4] = IRC assessed, ITT, Table 15 data cut-off
[5] = IRC assessed, ITT, final analysis
[6] = IRC assessed, del(17p)/TP53 mutation, final analysis
[7] = investigator assessed, ITT, Table 15 data cut-off
[8] = investigator assessed, ITT, final analysis
[9] = investigator assessed, del(17p)/TP53 mutation, final analysis

Compound: C=CC(=O)N1CCC([C@@H]2CCNc3c(C(N)=O)c(-c4ccc(Oc5ccccc5)cc4)nn32)CC1 [zanubrutinib, (S)-7-(1-acryloylpiperidin-4-yl)-2-(4-phenoxyphenyl)-4,5,6,7-tetrahydropyrazolo[1,5-a]pyrimidine-3-carboxamide]
- Increase in zanubrutinib Cmax and AUC [1]: 2- to 3 fold and 2 to 3 fold
- Patients with acalabrutinib-intolerance event recurrence who discontinued zanubrutinib ([2]; 3 patients): 66.7%
- Recurring acalabrutinib-intolerance events at lower severity ([2]; 3 recurring events): 33.3% and 33.0%
- Recurring acalabrutinib-intolerance events at same severity ([2]; 3 recurring events): 66.6% and 66.7%
- Grade 3 acalabrutinib-intolerance events that recurred ([2]; 4 grade 3 events): 25.0%
- Patients without recurrence of acalabrutinib-intolerance events ([2]; 10 patients): 70.0%
- Recurring grade 3 ibrutinib-intolerance events at lower severity ([2]; 13 events): 92.3%
- Recurring grade 3 ibrutinib-intolerance events at same severity ([2]; 13 events): 7.7%
- Acalabrutinib-intolerance events that did not recur ([2]; 18 events): 83.3%
- Acalabrutinib-intolerance events that recurred: arthralgia ([2]; 18 events): 5.6%
- Acalabrutinib-intolerance events that recurred: myalgia ([2]; 18 events): 11.1%
- Patients with recurrent ibrutinib-intolerance event who discontinued zanubrutinib ([2]; 25 patients): 24.0%
- Recurring ibrutinib-intolerance events at lower severity ([2]; 34 recurring events): 79.4%
- Recurring ibrutinib-intolerance events at same severity ([2]; 34 recurring events): 20.6%
- Grade 3 ibrutinib-intolerance events that recurred ([2]; 38 grade 3 events): 34.2%
- Patients without recurrence of ibrutinib-intolerance event ([2]; 62 patients): 59.7%
- Ibrutinib-intolerance events that did not recur ([2]; 115 events): 70.4%
- Intolerance events that did not recur ([2]; 141 intolerance events): 68.1%
- Patients with reoccurrence of previously intolerant adverse event(s) ([2]; all patients): 44.4%
- Patients without any recurrence of intolerance event(s) ([2]; all patients (clinical study report cut-off)): 56.6%
- Median time to first recurrence of ibrutinib-intolerance event ([2]; in vivo): 61 days
- 24-month event-free rate, duration of response (95% CI) ([3]; IRC assessed): 77.4 (71.0-82.5) %
- Median duration of response (95% CI) ([3]; IRC assessed): had not yet been reached
- Best response CR or CRi [3, 4]: 13 (4.0) n (%)
- Best response PD [3, 4]: 3 (0.9) n (%)
- Best response PR or nPR [3, 4]: 250 (76.5) n (%)
- Best response PR-L [3, 4]: 33 (10.1) n (%)
- Best response SD [3, 4]: 20 (6.1) n (%)
- Discontinue prior to first assessment, NA or NE [3, 4]: 8 (2.4) n (%)
- ORR (95% CI) [3, 4]: 80.4† (75.7, 84.6) %
- Best response CR or CRi [3, 5]: 22 (6.7) n (%)
- Best response PD [3, 5]: 3 (0.9) n (%)
- Best response PR or nPR [3, 5]: 260 (79.5) n (%)
- Best response PR-L [3, 5]: 18 (5.5) n (%)
- Best response SD [3, 5]: 16 (4.9) n (%)
- Discontinue prior to first assessment, NA or NE [3, 5]: 8 (2.4) n (%)
- ORR [3, 5]: 86.2%
- Best response CR or CRi [3, 6]: 6 (8.0) n (%)
- Best response PD [3, 6]: 1 (1.3) n (%)
- Best response PR or nPR [3, 6]: 58 (77.3) n (%)
- Best response PR-L [3, 6]: 4 (5.3) n (%)
- Best response SD [3, 6]: 3 (4.0) n (%)
- Discontinue prior to first assessment, NA or NE [3, 6]: 3 (4.0) n (%)
- ORR [3, 6]: 85.3%
- Median duration of response (95% CI) ([3]; IRC assessed, listed as Zanubrutinib): NE (31.3, NE)
- Duration of response events: death ([3]; IRC assessed): 20 (7.1) n (%)
- Duration of response events: progressive disease ([3]; IRC assessed): 40 (14.2) n (%)
- Duration of response: events ([3]; IRC assessed): 60 (21.3) n (%)
- Treatment discontinuation due to progressive disease ([3]; ITT): 7.3%
- PFS HR (95% CI), zanubrutinib over ibrutinib ([3]; accounting for drug interruption (ITT), independent review): 0.71 (0.53, 0.95)
- PFS HR (95% CI), zanubrutinib over ibrutinib ([3]; accounting for drug interruption (ITT), investigator assessment): 0.71 (0.52, 0.96)
- PFS HR (95% CI), zanubrutinib over ibrutinib ([3]; alternative censoring rules (ITT), independent review): 0.63 (0.48, 0.84)
- PFS HR (95% CI), zanubrutinib over ibrutinib ([3]; alternative censoring rules (ITT), investigator assessment): 0.65 (0.49, 0.87)
- Deaths ([3]; final analysis data cut-off): 48 n
- PFS HR (95% CI), zanubrutinib over ibrutinib ([3]; in vivo): 0.62 (0.46, 0.84) and 0.62 (0.45, 0.84)
- Treatment-failure event-free rate at 24 months ([3]; in vivo): 79.9%
- 24-month event-free rate, duration of response (95% CI) ([3]; investigator assessed): 79.5 (73.1-84.6) %
- Median PFS ([3]; investigator assessed): not reached
- Median duration of response (95% CI) ([3]; investigator assessed): had not yet been reached
- PFS rate at 24 months ([3]; investigator assessed): 78.4%
- Patients with disease progression or death ([3]; investigator assessed): 87 patients
- Rate of partial response with lymphocytosis or better ([3]; investigator assessed, ITT): 89.9%
- Best response CR or CRi [3, 7]: 16 (4.9) n (%)
- Best response PD [3, 7]: 1 (0.3) n (%)
- Best response PR or nPR [3, 7]: 244 (74.6) n (%)
- Best response PR-L [3, 7]: 32 (9.8) n (%)
- Best response SD [3, 7]: 25 (7.6) n (%)
- Discontinue prior to first assessment, NA or NE [3, 7]: 9 (2.8) n (%)
- ORR (95% CI) [3, 7]: 79.5* (74.7, 83.8) %
- Best response CR or CRi [3, 8]: 23 (7.0) n (%)
- Best response PD [3, 8]: 1 (0.3) n (%)
- Best response PR or nPR [3, 8]: 250 (76.5) n (%)
- Best response PR-L [3, 8]: 21 (6.4) n (%)
- Best response SD [3, 8]: 23 (7.0) n (%)
- Discontinue prior to first assessment, NA or NE [3, 8]: 9 (2.8) n (%)
- ORR [3, 8]: 83.5%
- Best response CR or CRi [3, 9]: 5 (6.7) n (%)
- Best response PD [3, 9]: 0 n (%)
- Best response PR or nPR [3, 9]: 56 (74.7) n (%)
- Best response PR-L [3, 9]: 6 (8.0) n (%)
- Best response SD [3, 9]: 5 (6.7) n (%)
- Discontinue prior to first assessment, NA or NE [3, 9]: 3 (4.0) n (%)
- ORR [3, 9]: 81.3%
- Median duration of response (95% CI) ([3]; investigator assessed, listed as Zanubrutinib): NE (31.3, NE)
- Duration of response events: death ([3]; investigator assessed): 20 (7.3) n (%)
- Duration of response events: progressive disease ([3]; investigator assessed): 33 (12.1) n (%)
- Duration of response: events ([3]; investigator assessed): 53 (19.4) n (%)
- PD detected by decrease in platelet count ([3]; investigator assessment, ITT): 0
- PD detected by increase in lymph nodes ([3]; investigator assessment, ITT): 40 (12.2)
- PD detected by new enlarged lymph nodes ([3]; investigator assessment, ITT): 3 (0.9)
- PD detected by new or increase in splenomegaly ([3]; investigator assessment, ITT): 8 (2.4)
- PD detected by new symptomatic disease ([3]; investigator assessment, ITT): 3 (0.9)
- Patients with disease transformation ([3]; investigator assessment, ITT): 5 (1.5)
- Patients with progressive disease ([3]; investigator assessment, ITT): 54 (16.5)
- PFS HR (95% CI), zanubrutinib over ibrutinib ([3]; per protocol population (N = 646), independent review): 0.64 (0.48, 0.85)
- PFS HR (95% CI), zanubrutinib over ibrutinib ([3]; per protocol population (N = 646), investigator assessment): 0.64 (0.48, 0.85)
